Measured values from patent US9687477B2 (priority 2011, dated 2017).

What was measured:
[1] = test system: Influenza A/WSN/33 virus (H1N1); assay: microbe, parasite or virus in culture; type: cell-based

CCCCCCCCCCCCC/C=C/[C@@H](O)[C@H](CO)N(C)C [DMS, D-erythro-N,N-dimethylsphingosine]
production of infectious influenza virus particles (virus titer, plaque assay) [1]: suppressed the production of infectious influenza virus particles | influenza viral protein expression (influenza virus): inhibition was also observed | influenza viral protein expression (NP, NS1, NS2, M1, M2) (influenza virus): inhibited influenza viral protein expression

Oc1ccc(Nc2nc(-c3ccc(Cl)cc3)cs2)cc1 [SKI-II, 4-[4-(4-Chloro-phenyl)-thiazol-2-ylamino]-phenol]
production of infectious influenza virus particles (virus titer, plaque assay) [1]: suppressed the production of infectious influenza virus particles | influenza viral protein expression (influenza virus): inhibition was also observed | influenza viral protein expression (NP, NS1, NS2, M1, M2) (influenza virus): inhibited influenza viral protein expression
